Experimental data from US5484940A, “Substituted 3-indolyl-5-pyrazolone compounds” (priority 1994, dated 1996).

Experiments:
[1] = system: β-amyloid peptide production; experiment: Cellular screen for inhibitors of β-amyloid production (ELISA, 293 751 SWE cells); assay type: cell-based, human; conditions: 2 h pretreatment + 2 h, normalized for cytotoxicity (MTT), concentration not given
Outline: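 293 751 SWE cells (K293 stably expressing APP751 Swedish mutant) pretreated 2 h with compound, then fresh compound-containing medium for 2 h more at 37 °C. Secreted β-amyloid in conditioned medium quantified by sandwich ELISA (capture 266 anti-Aβ13-28, labelled 6C6 anti-Aβ1-16) against a standard curve as ng/mL; mean ± SD of ≥6 replicates.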

human cortical neurons = experiment: Inhibition of toxicity of β-amyloid peptide to human neuronal cells (alamarBlue); assay type: cell-based; conditions: 50 μM β-amyloid peptide, 2-3 days; on average where more than one duplicate experiment; compound concentration not stated
Outline: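 Primary human cortical neurons, cultured in MEM/B27, were exposed to test compound plus 50 μM β-amyloid peptide in MEM for 2-3 days at 37 °C. Neuronal survival was quantified by reduction of 10% alamarBlue in MEM (fluorometric/colorimetric metabolic indicator).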

5-lipoxygenase = molecular target: T1, 5-lipoxygenase (Rattus norvegicus, UniProt P12527); experiment: 5-Lipoxygenase inhibition (5-HETE radioimmunoassay); assay type: biochemical; conditions: 6 μM compound; crude enzyme from RBL-1 cells; read-out: Percent Inhibition (5-lipoxygenase)
T1 construct: crude 5-lipoxygenase enzyme from rat basophilic leukemia cells (RBL-1); endogenous in cells; host or cells: RBL-1 (rat basophilic leukemia cells), crude enzyme
T1 sequence (P12527 1-673): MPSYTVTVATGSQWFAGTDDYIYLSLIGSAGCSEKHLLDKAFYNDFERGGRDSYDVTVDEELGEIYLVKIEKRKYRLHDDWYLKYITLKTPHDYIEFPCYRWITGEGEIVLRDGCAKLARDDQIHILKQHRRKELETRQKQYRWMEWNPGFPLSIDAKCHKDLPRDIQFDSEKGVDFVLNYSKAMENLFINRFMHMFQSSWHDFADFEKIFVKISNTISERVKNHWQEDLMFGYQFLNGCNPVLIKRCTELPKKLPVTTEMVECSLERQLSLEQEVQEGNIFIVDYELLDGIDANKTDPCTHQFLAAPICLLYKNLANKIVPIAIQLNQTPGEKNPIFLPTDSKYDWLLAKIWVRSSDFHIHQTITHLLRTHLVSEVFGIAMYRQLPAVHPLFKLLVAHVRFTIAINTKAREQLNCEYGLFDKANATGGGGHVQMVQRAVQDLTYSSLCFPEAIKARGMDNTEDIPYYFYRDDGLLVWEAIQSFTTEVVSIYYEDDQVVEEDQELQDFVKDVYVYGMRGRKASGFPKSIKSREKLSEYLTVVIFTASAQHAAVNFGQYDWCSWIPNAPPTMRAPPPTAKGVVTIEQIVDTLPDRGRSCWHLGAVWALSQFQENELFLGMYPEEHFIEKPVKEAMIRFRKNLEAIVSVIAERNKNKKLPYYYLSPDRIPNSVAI
Experimental: 5-Lipoxygenase catalyzes the oxidative metabolism of arachidonic acid to 5-hydroperoxyeicosatetraenoid acid ([…]), the initial reaction leading to the formation of the leukotrienes^18. Accordingly, compounds inhibiting 5-lipoxygenase activity are art recognized to have anti-inflammatory properties.
The ability of test compounds to inhibit 5-lipoxygenase activity was determined in assays^19 using crude 5-lipoxygenase enzyme from rat basophilic leukemia cells (RBL-1). Test compounds are pre-incubated with the enzyme for 5 minutes at room temperature and the reaction is initiated by addition of substrate (arachidonic acid). Following an 8 minute incubation at room temperature, the reaction is terminated by addition of citric acid, and levels of 5-HETE determined by 5-HETE radioimmunoassay.

SMILES: COc1ccc2c(c1)c(CC1=NN(c3cccc(C(F)(F)F)c3)C(=O)C1)c(C)n2C(=O)c1ccc(Cl)cc1 [Example 25, 3-[1-(4-chlorobenzoyl)-5-methoxy-2-methyl-3-indolylmethyl]-1-(3-trifluoromethylphenyl)-5-pyrazolone]
- reduction of β-amyloid peptide production as compared to control [1]: at least 20%
- inhibition of the toxicity of β-amyloid peptide to human neuronal cells (human cortical neurons): at least 25%
- inhibition at 6 µM (5-lipoxygenase): 60%
